Measured values reported in PubChem BioAssay (NCI).
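Tested at 5 concentrations; 48 h exposure; 96-well plates; endpoints linearly interpolated, else capped at highest concentration. The concentration for full growth arrest is given as TGI.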

Tests used:
Assay in all cases: NCI tumour cell line growth inhibition, 48 h
[1] = test system: COLO 205 colon
[2] = test system: SR leukemia
[3] = test system: MDA-N
[4] = test system: HS 578T breast
[5] = test system: SNB-75 CNS
[6] = test system: HCT-15 colon
[7] = test system: CCRF-CEM leukemia
[8] = test system: SNB-19 CNS
[9] = test system: CAKI-1 renal
[10] = test system: NCI-H460 lung
[11] = test system: HL-60(TB) leukemia

Row | Structure (SMILES) | TGI [1] [µM] | TGI [2] [µM] | TGI [3] [µM] | TGI [4] [µM] | TGI [5] [µM] | TGI [6] [µM] | TGI [7] [µM] | TGI [8] [µM] | TGI [9] [µM] | TGI [10] [µM] | TGI [11] [µM]
1 | Cc1cc2c(c(C(=O)NCCC(=O)O)c1)Oc1c(cc(C)cc1C(=O)NCCC(=O)O)S2 | > 100 | > 100 | > 100 | > 100 | > 100 | > 100 | > 100 | > 100 | > 100 | – | –
2 | COc1cc(COC(=O)N[C@H](C(=O)O)C(C)(C)C)c([N+](=O)[O-])cc1OC | > 100 | > 100 | > 100 | > 100 | > 100 | > 100 | > 100 | > 100 | – | > 100 | –
3 | CCOC(=O)C1=C(C)N(c2ccccc2)C2=C(C(=O)N(c3ccccc3)C2c2ccccc2)C1c1ccccc1 (stereo unspecified) | > 100 | > 100 | – | – | > 100 | – | > 100 | > 100 | > 100 | > 100 | > 100
4 | CCOC(=O)c1cc2c([N+](=O)[O-])c(NC(C)=O)ccc2s1 | > 100 | – | > 100 | > 100 | 94.1 | > 100 | > 100 | > 100 | > 100 | > 100 | > 100
5 | C[C@]12OC[C@H](c3ccccc3)N1C(=O)C1[C@H]2CC12SCCS2 (stereo partly specified) | > 100 | > 100 | > 100 | > 100 | > 100 | > 100 | > 100 | > 100 | > 100 | > 100 | –
6 | COc1ccc(/C(=C/n2ccnc2)C(=O)c2ccc(OC)c(OC)c2)cc1 | > 100 | > 100 | – | – | > 100 | > 100 | > 100 | > 100 | > 100 | > 100 | > 100
7 | CC(C)C(Sc1nc(-c2ccccc2)c(-c2ccccc2)[nH]1)C(=O)NNC(=S)Nc1ccccc1 (stereo unspecified) | 35.9 | 64.2 | – | – | 53.6 | 33.8 | 38 | 58.6 | – | 33.9 | 40.1
8 | CC(=O)OCC1OC(N2C(=O)/C(=C\c3ccc(Cl)cc3)C(N)=Nc3ccccc32)C(OC(C)=O)C(OC(C)=O)C1OC(C)=O (stereo unspecified) | 29.8 | 51.1 | 37.9 | > 100 | 74.4 | 59.2 | – | > 100 | > 100 | > 100 | > 100
9 | C=CCN(CC=C)Cn1c(=S)sc2ccccc21 | > 100 | – | > 100 | > 100 | > 100 | > 100 | 47.5 | > 100 | 30.7 | > 100 | 41
10 | Cc1c(/C=N\NC(=S)N2CCN(C(=S)N/N=C\c3c(C)n(C)n(-c4ccccc4)c3=O)CC2)c(=O)n(-c2ccccc2)n1C | > 100 | > 100 | – | > 100 | 48.7 | > 100 | – | > 100 | > 100 | > 100 | –
11 | CC(C)(C)C(=O)C(CC(=O)c1ccccc1)C(=O)C(C)(C)C | > 100 | – | > 100 | > 100 | > 100 | > 100 | > 100 | > 100 | > 100 | > 100 | > 100
12 | O=C1NC(c2ccc(O)cc2)C2CCC1C2 (stereo unspecified) | > 100 | > 100 | – | – | > 100 | – | > 100 | > 100 | > 100 | > 100 | > 100
13 | CC(C)CC(N)C(=O)OCN1C(=O)C2C3C=CC(C2C1=O)C1C2C(=O)N(COC(=O)C(N)CC(C)C)C(=O)C2C31 (stereo unspecified) | > 100 | – | – | – | > 100 | > 64.5 | > 100 | > 100 | > 100 | > 100 | 65.2
14 | O=c1oc2ccccc2c(O)c1C(c1cc(OCc2ccccc2)cc(OCc2ccccc2)c1)c1c(O)c2ccccc2oc1=O | 33.8 | 15 | – | 89.3 | 17 | 11.8 | > 22.5 | 17.9 | 22.1 | 11 | –
15 | CO[C@@H](C(=O)OC1C=CC2(CC1)C(=O)N(C)c1ccccc12)c1ccccc1 (stereo partly specified) | > 100 | > 100 | > 100 | – | > 100 | > 100 | > 100 | > 100 | > 100 | > 100 | 94
16 | Cc1c(Cl)cccc1NC(=O)C(=O)C1C(=O)CC(C)(C)CC1=O | > 100 | > 100 | – | – | > 100 | > 100 | > 100 | > 100 | > 100 | > 100 | > 100
17 | Nc1nc2ncc(SCc3ccc(C(=O)NC(CCC(=O)O)C(=O)O)cc3)cc2c(=O)[nH]1 (stereo unspecified) | > 100 | > 100 | > 100 | > 100 | – | > 100 | – | > 100 | > 100 | > 100 | > 100
18 | COC1(C)CC2N(C(=O)c3ccccc3)N=C(c3ccccc3)CC2(C)O1 (stereo unspecified) | – | – | – | – | > 100 | > 100 | > 100 | > 100 | > 100 | > 100 | > 100
19 | COc1ccc(C2C(Cl)C(=O)N2NC(=O)c2ccc(NC(C)=O)cc2)cc1 (stereo unspecified) | > 100 | – | – | – | > 100 | > 100 | > 100 | > 100 | > 100 | > 100 | > 100
20 | N#Cc1c(N)[nH]c(=S)c(C#N)c1-c1cccc(Cl)c1 | 40.9 | 40.6 | 37.8 | 94.1 | – | > 100 | – | > 100 | > 100 | > 100 | 65.2
21 | O=C1CC2(C[C@@H]3CCCCCCCCC[C@@H](C3)C2)N1 (stereo partly specified) | 30.7 | 30.7 | – | – | 20.6 | 34 | 37.6 | 34.6 | 25.4 | 38.4 | 38.8
22 | CCOC(=O)c1c(NC(=O)c2ccccc2)sc2c1CCCC2 | > 100 | – | > 100 | > 100 | > 100 | > 100 | > 100 | > 100 | > 100 | – | > 100
23 | Cc1cc(-c2nc3ccccc3s2)ccc1NS(=O)(=O)O | > 11.9 | > 100 | > 100 | > 59.5 | > 100 | > 100 | > 100 | > 100 | > 18.3 | > 100 | –
